Reference: US20130217655A1, “COMPOSITIONS FOR TREATING PSORIASIS OF THE SCALP” (Dermipsor Ltd., priority 2010, published 2013)

Experiment: skin penetration of calcipotriol from the formulation
Settings: calcipotriol in the present formulation, topical

penetration of the skin: does not penetrate the skin
Compound: C=C1/C(=C\C=C2/CCC[C@]3(C)[C@@H]([C@H](C)/C=C/[C@@H](O)C4CC4)CC[C@@H]23)C[C@@H](O)C[C@@H]1O [Calcipotriol]
